Results from PMC9732823, “Discovery of Dual Aβ/Tau Inhibitors and Evaluation of Their Therapeutic Effect on a Drosophila Model of Alzheimer’s Disease” (ACS Chemical Neuroscience, 2022).
Read-outs that look alike come from different tables or passages of the source.

How the values were obtained:
Tau protein = molecular target: T1, Tau protein (Homo sapiens, UniProt P10636); assay: Inhibition of Tau aggregation in intact E. coli cells overexpressing Tau (ThS fluorescence); format: cell-based, Escherichia coli; conditions: for inhibition at 10 µM: read-out: % inhibition Tau aggregation @ 10 μM, intact E. coli cells, compound 10 μM, mean ± SEM of four independent experiments; for % inhibition Tau aggregation @ 10 μM: intact E. coli cells, compound 10 μM, mean ± SEM of four independent experiments
T1 construct: expressed in transfected cells; host or cells: Escherichia coli BL21 (DE3) with pTARA and pRKT42
T1 sequence (P10636 1-441 isoform P10636-8): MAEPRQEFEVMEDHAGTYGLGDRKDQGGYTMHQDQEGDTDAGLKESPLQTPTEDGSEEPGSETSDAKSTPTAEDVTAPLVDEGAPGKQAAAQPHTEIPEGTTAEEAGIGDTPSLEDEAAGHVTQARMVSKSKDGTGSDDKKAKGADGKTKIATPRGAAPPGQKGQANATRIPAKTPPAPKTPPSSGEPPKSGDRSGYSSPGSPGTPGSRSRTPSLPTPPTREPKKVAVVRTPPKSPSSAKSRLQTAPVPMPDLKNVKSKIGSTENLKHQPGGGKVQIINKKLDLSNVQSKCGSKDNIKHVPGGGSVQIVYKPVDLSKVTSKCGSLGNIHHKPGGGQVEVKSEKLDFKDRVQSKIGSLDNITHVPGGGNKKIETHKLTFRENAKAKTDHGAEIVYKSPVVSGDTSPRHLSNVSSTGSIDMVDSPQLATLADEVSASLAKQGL
Text: (§1) As it would have been labor-intensive and expensive to screen such a number of compounds in two separate antiaggregating studies using recombinant Aβ and Tau, we turned our attention to a simple model of protein aggregation, namely, the intact Escherichia coli (E. coli) cells overexpressing Aβ42 and Tau proteins.[28],[29] Building on the fact that inclusion bodies produced by overexpression of these proteins in E. coli mainly consist of fibrillar aggregates, this simple screening method uses bacteria as an in vivo reservoir for tracking the inhibition of amyloid-type protein aggregation in real time, using the amyloid dye thioflavin S (ThS). Of note, this screening has already been used for the evaluation of libraries of antiaggregating compounds.[28]−[38]
E. coli BL21 (DE3) competent cells were transformed with pTARA containing the RNA-polymerase gen of the T7 phage (T7RP) under the control of the promoter PBAD. E. coli BL21 (DE3) with pTARA competent cells were transformed with the pRKT42 vector encoding four repeats of Tau protein in two inserts. For overnight culture preparation, 10 mL of M9 medium containing 0.5% of glucose, 100 μg·mL^–1 ampicillin, and 12.5 μg·mL^–1 chloramphenicol were inoculated with a colony of BL21 (DE3) bearing the plasmids to be expressed at 37 °C. For expression of Tau protein, the required volume of overnight culture to obtain 1:500 dilution was added to fresh M9 minimal medium containing 0.5% of glucose, 50 μg·mL^–1 ampicillin, 12.5 μg·mL^–1 chloramphenicol, and 25 μM ThS. The bacterial culture was grown at 37 °C and 250 rpm. When the cell density reached ABS600 nm= 0.6, an amount of 980 μL of culture was transferred into Eppendorf tubes of 1.5 mL with 10 μL of each compound to be tested in DMSO and 10 μL of arabinose at 25%. The final concentration of the drug was fixed at 10 μM. The samples were grown overnight at 37 °C and 1400 rpm using a thermomixer (Eppendorf, Hamburg, Germany). As the control of maximal amyloid presence, the same amount of DMSO without the drug was added to the sample. In parallel, noninduced samples (in the absence of arabinose) were also prepared and used as controls for the amyloid absence. In addition, the absorbance at 600 nm of the samples was checked to assess the potential intrinsic toxicity of the compounds and to confirm the correct bacterial growth.
(§2) ThS (T1892) and other chemical reagents were purchased from Sigma (St. Louis, MO). ThS stock solution (25 mM) was prepared in double-distilled water purified through a Milli-Q system (Millipore). For the fluorescence assay, the ThS spectra were measured on an AMINCO-Bowman series 2 luminescence spectrophotometer (Aminco-Bowman AB2, SLM Aminco, Rochester, NY) from 460 to 600 nm at 25 °C using an excitation wavelength of 440 nm and slit widths of 4 nm. The emission at 485 nm (fluorescence peak of ThS in the presence of amyloids) was recorded. To normalize the ThS fluorescence as a function of the bacterial concentration, ABS600nm was obtained using a Shimadzu UV-2401 PC UV–Vis spectrophotometer (Shimadzu, Japan). Note that the fluorescence normalization was carried out considering as 100% the ThS fluorescence of the bacterial cells expressing the peptide or protein in the absence of the drug and 0% the ThS fluorescence of the bacterial cells nonexpressing the peptide or protein.

[1] = test system: cerebellar granule neurons (CGNs); assay: Neurotoxicity on primary cultures of cerebellar granule neurons (nuclei counting after Hoechst staining); conditions: differentiated CGNs, 24 h, percentage of healthy nuclei on total nuclei, mean ± SEM of three experiments
Aβ42 = molecular target: T2, Aβ42 (Homo sapiens, UniProt P05067); assay: Inhibition of Aβ42 aggregation in intact E. coli cells overexpressing Aβ42 (ThS fluorescence); format: cell-based, Escherichia coli
T2 construct: expressed in transfected cells; host or cells: Escherichia coli BL21 (DE3), pET28a
T2 sequence (P05067 672-713 limits assumed): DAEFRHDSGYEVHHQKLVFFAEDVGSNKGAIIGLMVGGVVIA
Text: as §1
Escherichia coli competent cells BL21 (DE3) were transformed with the pET28a vector (Novagen, Inc., Madison, WI) carrying the DNA sequence of Aβ42. Because of the addition of the initiation codon ATG in front of both genes, the overexpressed peptide contains an additional methionine residue at its N terminus. For overnight culture preparation, an amount of 10 mL of M9 minimal medium containing 50 μg·mL^–1 kanamycin was inoculated with a colony of BL21 (DE3) bearing the plasmid to be expressed at 37 °C. For expression of the Aβ42 peptide, the required volume of overnight culture to obtain 1:500 dilution was added into fresh M9 minimal medium containing 50 μg·mL^–1 kanamycin and 250 μM ThS. The bacterial culture was grown at 37 °C and 250 rpm. When the cell density reached ABS600 nm = 0.6, an amount of 980 μL of culture was transferred into Eppendorf tubes of 1.5 mL with 10 μL of each compound to be tested in DMSO and 10 μL of isopropyl 1-thio-β-D-galactopyranoside (IPTG) at 100 mM. The final concentration of the drug was fixed at 10 μM. The samples were grown overnight at 37 °C and 1400 rpm using a thermomixer (Eppendorf, Hamburg, Germany). As the control of the amyloid presence (maximal amyloid presence), the same amount of DMSO without the drug was added to the sample. In parallel, noninduced samples (in the absence of IPTG) were also prepared and used as controls of the non-amyloid presence. In addition, the absorbance at 600 nm of the samples was checked to assess the potential intrinsic toxicity of the compounds and to confirm the correct bacterial growth.
as §2

[2] = read-out: % inhibition Aβ42 aggregation @ 10 μM, intact E. coli cells, compound 10 μM, mean ± SEM of four independent experiments

SMILES	inhibition at 10 µM (Tau protein) [%]	% survival neurotoxicity @ 10 μM [1] [%]	inhibition at 10 µM (Aβ42; [2]) [%]	% inhibition Tau aggregation @ 10 μM (Tau protein; 10 µM) [%]	% inhibition Tau aggregation @ 10 μM (Tau protein) [%]	% inhibition Aβ42 aggregation @ 10 μM (Aβ42; intact E. coli cells, compound 10 μM, mean ± SEM of four independent experiments) [%]	inhibition at 10 µM (Aβ42; read-out: % inhibition Aβ42 aggregation @ 10 μM) [%]
O=C1NC(=O)/C(=C/c2ccc(/C=C3\SC(=O)NC3=O)cc2)S1 [Compound 1, (5Z,5′Z)-5,5′-(1,4-Phenylenebis(methanylylidene))bis(thiazolidine-2,4-dione)]	19.4 ± 3.6	77.6 ± 6.1	25.4 ± 1.9	–	–	–	–
O=C1NC(=O)/C(=C/c2ccc(-c3ccc(/C=C4\SC(=O)NC4=O)cc3)cc2)S1 [Compound 2, (5Z,5′Z)-5,5′-([1,1′-Biphenyl]-4,4′-diylbis(methanylylidene))bis(thiazolidine-2,4-dione)]	16.5 ± 3.1	81.3 ± 6.5	20.2 ± 2.1	–	–	–	–
O=C1NC(=O)/C(=C/c2ccc(Cc3ccc(/C=C4\SC(=O)NC4=O)cc3)cc2)S1 [Compound 3, (5Z,5′Z)-5,5′-((Methylenebis(4,1-phenylene))bis(methanylylidene))bis(thiazolidine-2,4-dione)]	5.2 ± 2.7	62.4 ± 9.6	12.9 ± 3.4	–	–	–	–
O=C1NC(=O)/C(=C/c2ccc3[nH]c4ccc(/C=C5\SC(=O)NC5=O)cc4c3c2)S1 [Compound 4, (5Z,5′Z)-5,5′-((9H-Carbazole-3,6-diyl)bis(methanylylidene))bis(thiazolidine-2,4-dione)]	21.2 ± 2.6	73.4 ± 5.1	24.7 ± 4.1	–	–	–	–
CC1(C)c2cc(/C=C3\SC(=O)NC3=O)ccc2-c2ccc(/C=C3\SC(=O)NC3=O)cc21 [Compound 5, (5Z,5′Z)-5,5′-((9,9-Dimethyl-9H-fluorene-2,7-diyl)bis(methanylylidene))bis(thiazolidine-2,4-dione)]	14.8 ± 3	67.9 ± 5.4	23.6 ± 2.6	–	–	–	–
O=C1NC(=O)/C(=C/c2ccc(-c3ccc(/C=C4\SC(=O)NC4=O)s3)s2)S1 [Compound 6, (5Z,5′Z)-5,5′-([2,2′-Bithiophene]-5,5′-diylbis(methanylylidene))bis(thiazolidine-2,4-dione)]	< 20	89.9 ± 1.2	42.4 ± 4.5	19.4 ± 3.9	–	–	–
CCOC(=O)CN1C(=O)S/C(=C\c2ccc(-c3ccc(/C=C4\SC(=O)N(CC(=O)OCC)C4=O)cc3)cc2)C1=O [Compound 8, Diethyl 2,2′-((5Z,5′Z)-([1,1′-biphenyl]-4,4′-diylbis(methanylylidene))bis(2,4-dioxothiazolidin-3-yl-5-ylidene))diacetate]	18.1 ± 3.2	87.2 ± 3.1	14.3 ± 3.5	–	–	–	–
CCOC(=O)CN1C(=O)S/C(=C\c2ccc(Cc3ccc(/C=C4\SC(=O)N(CC(=O)OCC)C4=O)cc3)cc2)C1=O [Compound 9, Diethyl 2,2′-((5Z,5′Z)-((methylenebis(4,1-phenylene))bis(methanylylidene))bis(2,4-dioxothiazolidin-3-yl-5-ylidene))diacetate]	19.9 ± 3.6	88.7 ± 4.1	14.5 ± 4.1	–	–	–	–
CCOC(=O)CN1C(=O)S/C(=C\c2ccc3c(c2)C(C)(C)c2cc(/C=C4\SC(=O)N(CC(=O)OCC)C4=O)ccc2-3)C1=O [Compound 11, Diethyl 2,2′-((5Z,5′Z)-((9,9-dimethyl-9H-fluorene-2,7-diyl)bis(methanylylidene))bis(2,4-dioxothiazolidin-3-yl-5-ylidene))diacetate]	33.1 ± 4.5	85.8 ± 6.9	17.5 ± 4.5	–	–	–	–
CCOC(=O)CN1C(=O)S/C(=C\c2ccc(-c3ccc(/C=C4\SC(=O)N(CC(=O)OCC)C4=O)s3)s2)C1=O [Compound 12, Diethyl 2,2′-((5Z,5′Z)-([2,2′-bithiophene]-5,5′-diylbis(methanylylidene))bis(2,4-dioxothiazolidin-3-yl-5-ylidene))diacetate]	9.2 ± 5	90.2 ± 2.1	7 ± 3.7	–	–	–	–
O=C(O)CN1C(=O)S/C(=C\c2ccc(/C=C3\SC(=O)N(CC(=O)O)C3=O)cc2)C1=O [Compound 13, 2,2′-((5Z,5′Z)-(1,4-Phenylenebis(methanylylidene))bis(2,4-dioxothiazolidin-3-yl-5-ylidene))diacetic acid]	25.3 ± 4.2	82.3 ± 2.9	16.1 ± 3.9	–	–	–	–
O=C(O)CN1C(=O)S/C(=C\c2ccc(-c3ccc(/C=C4\SC(=O)N(CC(=O)O)C4=O)cc3)cc2)C1=O [Compound 14, 2,2′-((5Z,5′Z)-([1,1′-Biphenyl]-4,4′-diylbis(methanylylidene))bis(2,4-dioxothiazolidin-3-yl-5-ylidene))diacetic acid]	27.1 ± 2.5	89.0 ± 2.2	35.1 ± 1.9	–	–	–	–
O=C(O)CN1C(=O)S/C(=C\c2ccc(Cc3ccc(/C=C4\SC(=O)N(CC(=O)O)C4=O)cc3)cc2)C1=O [Compound 15, 2,2′-((5Z,5′Z)-((Methylenebis(4,1-phenylene))bis(methanylylidene))bis(2,4-dioxothiazolidin-3-yl-5-ylidene))diacetic acid]	3.8 ± 5.2	90.9 ± 1.5	26.2 ± 1.9	–	–	–	–
O=C(O)CN1C(=O)S/C(=C\c2ccc(-c3ccc(/C=C4\SC(=O)N(CC(=O)O)C4=O)s3)s2)C1=O [Compound 18, 2,2′-((5Z,5′Z)-([2,2′-Bithiophene]-5,5′-diylbis(methanylylidene))bis(2,4-dioxothiazolidin-3-yl-5-ylidene))diacetic acid]	< 20	90.9 ± 3.1	65.6 ± 3.3	15.8 ± 4.7	–	–	–
CC1=CC2Cc3nc4cc(Cl)ccc4c(NCCCCCCCNc4c5c(nc6ccccc46)CCCC5)c3C(C1)C2 (stereo not drawn) [HUP7TH, reference compound]	–	–	–	–	69.5 ± 1.6	77.6 ± 1.5	–
CC1=CC2Cc3nc4cc(Cl)ccc4c(N)c3C(C1)C2 (stereo not drawn) [Huprine Y, huprine Y, reference compound]	–	–	–	–	–	–	4.6 ± 2.3
O=C(O)c1cc(O)c2c(c1)C(=O)c1cccc(O)c1C2=O [Rhein, rhein, reference compound]	39.2 ± 2.1	–	–	–	–	–	–
